In ChEMBL document CHEMBL1125567, “Novel cAMP PDE III inhibitors: 1,6-naphthyridin-2(1H)-ones” (J Med Chem, 1992):

What was measured:
[1] = target: Phosphodiesterase 3 (Canis lupus familiaris); test: In vitro inhibitory activity against cAMP PDE III.
[2] = test system: Phosphodiesterase 3 (Canis lupus familiaris); test: In vitro inhibition of cAMP PDE III by the compound at a concentration of 10 uM
[3] = test system: Phosphodiesterase 3 (Canis lupus familiaris); test: In vitro inhibition of cAMP Phosphodiesterase 3 at a concentration of 10 uM
[4] = target: Phosphodiesterase 3 (Canis lupus familiaris); test: Inhibition of cAMP Phosphodiesterase 3
[5] = target: Phosphodiesterase 3 (Canis lupus familiaris); test: Inhibition of cAMP PDE 3
[6] = test system: Phosphodiesterase 3 (Canis lupus familiaris); test: Inhibition of cAMP PDE 3 at 10 uM
[7] = target: Phosphodiesterase 3 (Canis lupus familiaris); test: Inhibition of cAMP PDE 3; remark: listed apart in the source
[8] = test system: Phosphodiesterase 3 (Canis lupus familiaris); test: Inhibition of cAMP Phosphodiesterase 3 at 10 uM

Compound | IC50 [1] | inhibition [2] | inhibition [3] | also measured
Nc1ccc(-c2nccc3nc(O)ccc23)cc1 | 230 nM | 91% |  | 
Cc1cc2nc(O)ccc2cn1 |  |  | 53% | 
Oc1ccc2c(-c3ccc(F)cc3)nccc2n1 | 940 nM | 78% |  | 
COc1ccc2c(C)nccc2n1 |  |  | 21% | 
Cc1cc2cnccc2nc1O |  |  | 37% | 
Cc1nccc2nc(S)ccc12 |  |  | 81% | IC50 [4]: 960 nM
Cc1nccc2[nH]c(=O)ccc12 [MEDORINONE] |  |  |  | IC50 [5]: 550 nM; inhibition [6]: 67%
Cn1c(=O)ccc2c(-c3ccccc3)nccc21 |  |  | 36% | 
Oc1ccc2c(Br)nccc2n1 |  |  |  | IC50 [7]: 170 nM; inhibition [8]: 70%
Oc1ccc2c(-n3cncn3)nccc2n1 |  |  |  | inhibition [8]: 50%
Oc1ccc2c(C(Cl)Cl)nccc2n1 |  |  |  | IC50 [7]: 160 nM; inhibition [8]: 83%
Cc1ncc([N+](=O)[O-])n1-c1nccc2nc(O)ccc12 |  |  | 18% | 
Cc1nccc2nc(O)c(C(N)=O)cc12 |  |  | 39% | 
Oc1ccc2c(-n3cnc(C(F)(F)F)c3)nccc2n1 |  |  | 13% | 
Cc1nccc2nc(Cl)ccc12 |  |  |  | inhibition [8]: 18%
Oc1ccc2c(-n3cnc(Br)c3)nccc2n1 |  |  |  | inhibition [8]: 43%
Oc1ccc2c(-c3ccc(Cl)cc3)nccc2n1 | 300 nM | 78% |  | 
Cc1nccc2nc(O)c(O)cc12 |  |  | 51% | 
Cc1c2ccc(=O)[nH]c2cc[n+]1[O-] | 3100 nM | 65% |  | 
Cc1nccc2nc(O)c(N)cc12 |  |  | 59% | 
O=[N+]([O-])c1cn(-c2nccc3nc(O)ccc23)cn1 |  |  | 46% | 
Oc1ccc2c(-n3cnc(-c4ccccc4)c3)nccc2n1 |  |  | 43% | 
Cc1nccc2nc(O)c(C#N)cc12 |  |  | 52% | 
Cc1nccc2nc(N)ccc12 |  |  | 24% | 
Oc1ccc2c(-c3ccc(Br)cc3)nccc2n1 |  |  | 55% | 
Cc1nccc2c1ccc(=O)n2C |  |  | 17% | 
Cc1cn(-c2nccc3c2ccc(=O)n3C)cn1 |  |  | 21% | 

Further lines, with some results ahead:

IC50 [1] | inhibition [2] | inhibition [3] | Compound | also measured
570 nM | 81% |  | CC(C)Cc1nccc2nc(O)ccc12 | 
2200 nM | 78% |  | Oc1ccc2c(-c3ccncc3)nccc2n1 | 
 |  | 39% | Oc1ccc2c(-n3cccn3)nccc2n1 | 
140 nM | 74% |  | Oc1ccc2c(-c3ccco3)nccc2n1 | 
 |  | 81% | Oc1ccc(-c2nccc3nc(O)ccc23)cc1 | IC50 [4]: 600 nM
 |  | 30% | Cc1cnn(-c2nccc3nc(O)ccc23)c1 | 
1400 nM | 78% |  | Oc1ccc2c(-c3ccccc3)nccc2n1 | 
 |  | 34% | Cc1nccn1-c1nccc2nc(O)ccc12 | 
48 nM | 83% |  | CCCc1nccc2nc(O)ccc12 | 
40 nM | 87% |  | CCc1nccc2nc(O)ccc12 | 
1420 nM | 85% |  | CC(=O)c1nccc2nc(O)ccc12 | 
 |  | 58% | OCc1cn(-c2nccc3nc(O)ccc23)cn1 | 
18800 nM | 55% |  | Oc1ccc2cnccc2n1 | 
140 nM | 79% |  | Oc1ccc2c(-c3cccs3)nccc2n1 | 
 |  | 28% | Cc1ncn(-c2nccc3nc(O)ccc23)c1C | 
 |  | 56% | Oc1ccc2c(-n3ccnc3)nccc2n1 | 
3200 nM | 64% |  | COc1ccc(-c2nccc3nc(O)ccc23)cc1 | 
 |  | 39% | Cc1ncn(-c2nccc3nc(O)ccc23)n1 | 
3700 nM | 58% |  | OCc1nccc2nc(O)ccc12 | 
2800 nM | 72% |  | Cc1cn(-c2nccc3nc(O)ccc23)cn1 | 
